pIC50: −log10 of the molar value.
How the values were obtained:
A-Raf kinase = molecular target: T1, A-Raf kinase (Homo sapiens, UniProt P10398, Y301D/Y302D); assay: Biochemical assay for A-Raf.1 (coupled pyruvate kinase/lactate dehydrogenase); conditions: read-out: ARAF.1 IC50
T1 construct: purchased Sigma
Protocol: Biochemical assay for A-Raf.1
(§1) Activity of A-Raf kinase (SEQ. ID NO. 1) was determined spectroscopically using a coupled pyruvate kinase/lactate dehydrogenase assay that continuously monitors the ATP hydrolysis-dependent oxidation of NADH (e.g., Schindler et al., Science, 2000, 289, 1938-1942). Assays were conducted in 384-well plates (100 μL final volume) using 5.55 nM A-Raf (Sigma), 1.5 units pyruvate kinase, 2.1 units lactate dehydrogenase, 1 mM phosphoenol pyruvate, 0.28 mM NADH, 30.1 nM MEK (SignalChem), and 1 mM ATP in assay buffer (100 mM Tris, pH 7.5, 15 mM MgCl2, 0.5 mM DTT, 0.1% octyl-glucoside, 0.002% (w/v) BSA, and 0.002% Triton X-100). Inhibition of A-Raf was measured by adding serial diluted test compound (final assay concentration of 1% DMSO). A decrease in absorption at 340 nm was monitored continuously for 6 h at 30° C. on a multi-mode microplate reader (BioTek). The reaction rate was calculated using the 4 to 5 h time frame. The reaction rate at each concentration of compound was converted to percent inhibition using controls (i.e., reaction with no test compound and reaction with a known inhibitor) and IC50 values were calculated by fitting a four-parameter sigmoidal curve to the data using Prism (GraphPad software).

B-Raf kinase = molecular target: T2, B-Raf kinase (Homo sapiens, UniProt P15056); assay: Biochemical assay for B-Raf.1 (coupled pyruvate kinase/lactate dehydrogenase); conditions: read-out: BRAF.1 IC50
T2 construct: GST (N); purchased Sigma
Protocol: Biochemical Assay for B-Raf.1
as §1, with “B-Raf” for “A-Raf”, “NO: 2)” for “NO. 1)”, “0.13” for “5.55”

C-Raf kinase = molecular target: T3, C-Raf kinase (Homo sapiens, UniProt P04049, Y340D/Y341D); assay: Biochemical assay for C-Raf.1 (coupled pyruvate kinase/lactate dehydrogenase); conditions: read-out: CRAF.1 IC50
T3 construct: Y340D,; GST (N); purchased Sigma
Protocol: Biochemical Assay for C-Raf.1
as §1, with “C-Raf” for “A-Raf”, “NO: 3)” for “NO. 1)”, “0.43” for “5.55”

B-Raf (V600E) kinase = molecular target: T4, B-Raf (V600E) kinase (Homo sapiens, UniProt P15056, V600E); assay: Biochemical assay for B-Raf (V600E).1 (coupled pyruvate kinase/lactate dehydrogenase); conditions: read-out: BRAF V600E.1 IC50
T4 construct: B-Raf (V600E) residues 416-766 with a; GST (N); purchased SignalChem
Protocol: Biochemical Assay for B-Raf (V600E).1
Activity of B-Raf (V600E) (SEQ. ID NO: 4) kinase was determined spectroscopically using a coupled pyruvate kinase/lactate dehydrogenase assay that continuously monitors the ATP hydrolysis-dependent oxidation of NADH (e.g., Schindler et al., Science, 2000, 289, 1938-1942). Assays were conducted in 384-well plates (100 μL final volume) using 0.03 nM B-Raf (SignalChem), 1.5 units pyruvate kinase, 2.1 units lactate dehydrogenase, 1 mM phosphoenol pyruvate, 0.28 mM NADH, 30.1 nM MEK (SignalChem), and 1 mM ATP in assay buffer (100 mM Tris, pH 7.5, 15 mM MgCl2, 0.5 mM DTT, 0.1% octyl-glucoside, 0.002% (w/v) BSA, and 0.002% Triton X-100). Inhibition of B-Raf (V600E) was measured by adding serial diluted test compound (final assay concentration of 1% DMSO). A decrease in absorption at 340 nm was monitored continuously for 6 h at 30° C. on a multi-mode microplate reader (BioTek). The reaction rate was calculated using the 3 to 4 h time frame. The reaction rate at each concentration of compound was converted to percent inhibition using controls (i.e., reaction with no test compound and reaction with a known inhibitor) and IC50 values were calculated by fitting a four-parameter sigmoidal curve to the data using Prism (GraphPad software).

A375 cells = assay: A375 cell proliferation assay (1), resazurin, 96-well; format: cell-based; conditions: Homo sapiens, A-375, inhibition of cell proliferation
Protocol: A375 Cell Proliferation Assay (1)
A375 cells (catalog (#CRL-1619) are obtained from the American Type Culture Collect (ATTC, Manassas, VA). Briefly, cells were grown in DMEM High Glucose supplemented with 10% characterized fetal bovine serum (Invitrogen, Carlsbad, CA) and 1% Penicillin/Streptomycin/L-Glutamine at 37° C., 5% CO2, and 95% humidity. Cells are expanded until reaching 70-95% confluency at which point they are sub-cultured or harvested for assay use. A serial dilution of test compound is dispensed into a 96-well black clear bottom plate in triplicate. Two thousand five hundred cells are added per well in 200 μL complete growth medium in the 96-well plate. Plates are incubated for 67-72 hours at 37° C., 5% CO2, and 95% humidity. At the end of the incubation, 40 μL of a 440 μM solution of resazurin (Sigma, St. Louis, MO) in PBS is added to each well of the plate and plates are incubated for an additional 5-6 hours at 37° C., 5% CO2, and 95% humidity. Plates are read on a Synergy2 or equivalent reader (Biotek, Winooski VT) using an excitation of 540 nm and an emission of 600 nm. Data is analyzed using Prism software (GraphPad, San Diego, CA) to calculate IC50 values.

T4 sequence (P15056 416-766 V600E): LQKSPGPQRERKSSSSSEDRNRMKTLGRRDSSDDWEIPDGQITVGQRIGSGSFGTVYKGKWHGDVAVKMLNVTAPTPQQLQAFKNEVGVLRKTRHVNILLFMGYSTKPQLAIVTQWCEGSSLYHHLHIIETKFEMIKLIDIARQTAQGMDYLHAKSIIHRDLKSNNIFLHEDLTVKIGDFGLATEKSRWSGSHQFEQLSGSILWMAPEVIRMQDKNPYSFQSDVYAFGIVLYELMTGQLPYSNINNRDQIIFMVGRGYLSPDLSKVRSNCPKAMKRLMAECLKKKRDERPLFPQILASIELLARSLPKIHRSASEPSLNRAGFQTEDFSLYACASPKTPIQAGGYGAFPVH
T1 sequence (P10398 with tags, fused parts or gaps Y301D/Y302D): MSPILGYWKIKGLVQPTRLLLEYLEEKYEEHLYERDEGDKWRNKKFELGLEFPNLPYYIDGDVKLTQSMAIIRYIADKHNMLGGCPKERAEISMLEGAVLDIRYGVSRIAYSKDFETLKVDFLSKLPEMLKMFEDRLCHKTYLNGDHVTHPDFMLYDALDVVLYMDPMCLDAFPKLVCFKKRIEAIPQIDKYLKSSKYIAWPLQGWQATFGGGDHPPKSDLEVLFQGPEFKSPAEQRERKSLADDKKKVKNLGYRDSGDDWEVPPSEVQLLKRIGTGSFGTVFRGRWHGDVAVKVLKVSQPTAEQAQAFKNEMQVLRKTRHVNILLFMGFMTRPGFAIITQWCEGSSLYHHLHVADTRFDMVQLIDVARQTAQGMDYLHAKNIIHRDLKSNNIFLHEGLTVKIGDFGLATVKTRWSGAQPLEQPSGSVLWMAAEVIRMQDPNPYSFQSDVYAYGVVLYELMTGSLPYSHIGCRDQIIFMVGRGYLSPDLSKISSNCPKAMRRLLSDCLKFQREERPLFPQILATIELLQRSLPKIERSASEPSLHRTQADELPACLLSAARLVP
T3 sequence (P04049 307-648 Y340D/Y341D): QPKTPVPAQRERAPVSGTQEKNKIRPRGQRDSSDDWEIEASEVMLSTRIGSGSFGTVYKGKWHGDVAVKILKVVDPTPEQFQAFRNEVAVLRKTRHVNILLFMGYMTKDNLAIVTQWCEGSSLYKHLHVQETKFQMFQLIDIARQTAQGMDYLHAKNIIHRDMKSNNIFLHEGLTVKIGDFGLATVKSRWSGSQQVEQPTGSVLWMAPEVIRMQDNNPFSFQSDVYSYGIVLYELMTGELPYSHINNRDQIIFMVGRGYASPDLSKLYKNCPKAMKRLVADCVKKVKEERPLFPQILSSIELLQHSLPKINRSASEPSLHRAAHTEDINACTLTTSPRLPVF
T2 sequence (P15056 416-766): as the sequence (P15056 416-766 V600E) above, with E185V counted along it

Compound | pIC50 (A-Raf kinase) | pIC50 (B-Raf kinase) | pIC50 (C-Raf kinase) | pIC50 (B-Raf (V600E) kinase) | pIC50 (A375 cells)
Cc1ccc(NC(=O)NCCC(C)(C)C)cc1-c1cc(-c2cnn(C)c2)nc(N2CCOCC2)c1 [Example 6] | < 6.00 | 6.30 to 7.00 | 6.30 to 7.00 | ≥ 7.00 | 5.00 to 6.00
COC(C)(C)CCNC(=O)Nc1cc(-c2cccc(-c3ccnc(N)c3)c2)c(C)cc1F [Example 70] | < 6.00 | 6.30 to 7.00 | 6.30 to 7.00 | ≥ 7.00 | 
Cc1ccc(NC(=O)NCCC(C)(C)C)cc1-c1cc(N2CCOCC2)nc(N2CC(C)(O)C2)n1 [Example 1, 1-(3,3-dimethylbutyl)-3-(3-(2-(3-hydroxy-3-methylazetidin-1-yl)-6-morpholinopyrimidin-4-yl)-4-methylphenyl)urea] | < 6.00 | ≥ 7.00 | ≥ 7.00 | ≥ 7.00 | ≥ 7.00
Cc1cc(F)c(NC(=O)N[C@H]2C[C@H](N(C)C)C2)cc1-c1cc(OCCO)nc(-c2ccnc3[nH]ncc23)c1 [Example 86] | < 6.00 | < 6.00 | < 6.00 | 6.30 to 7.00 | 
COC1(CCNC(=O)Nc2cc(-c3cc(-c4cnn(C)c4)nc(N4CCOCC4)c3)c(C)cc2F)CC1 [Example 35] | < 6.00 | 6.30 to 7.00 | 6.30 to 7.00 | ≥ 7.00 | 
COC(=O)Nc1cc(-c2cnnc(-c3cc(NC(=O)N4CCC(C)(C)C4)cnc3C)c2)ccn1 [Example 191] | < 6.00 | < 6.00 | < 6.00 | < 6.00 | 
CNC(=O)c1cc(-c2cnnc(-c3cc(NC(=O)N4CCC(CC(F)(F)F)C4)cnc3C)c2)ccn1 (stereo not drawn) [Example 192] | < 6.00 | < 6.00 | 6.00 to 6.30 | < 6.00 | 
COC(=O)Nc1cc(-c2cc(-c3cc(NC(=O)N4CCC(C(C)(C)O)C4)cnc3C)ccn2)ccn1 (stereo not drawn) [Example 212] | < 6.00 | < 6.00 | 6.00 to 6.30 | < 6.00 | 
Cc1ncc(NC(=O)N2CCOCC2)cc1-c1cccc(-c2cc(NC(=O)C3CC3)ncn2)c1 [Example 74] | < 6.00 | < 6.00 | < 6.00 | 6.30 to 7.00 | 
CC(=O)Nc1cc(-c2cc(-c3cc(NC(=O)NCCCC(F)(F)F)c(F)cc3C)cc(C3CC3)n2)ccn1 [Example 58] | 6.00 to 6.30 | ≥ 7.00 | ≥ 7.00 | ≥ 7.00 | 
COC(=O)Nc1cc(-c2cnnc(-c3cccc(NC(=O)N4CC[C@H](OC)C4)c3)c2)ccn1 [Example 190] | < 6.00 | < 6.00 | < 6.00 | < 6.00 | 
CNC(=O)c1cc(-c2cnnc(-c3cc(NC(=O)N4CC[C@@H](OC)C4)cnc3C)c2)ccn1 [Example 204] | < 6.00 | < 6.00 | < 6.00 | < 6.00 | 
Cc1ncc(NC(=O)NCCC(C)(C)C)cc1-c1ccnc(N2CCOCC2)c1 [Example 16] | < 6.00 | 6.00 to 6.30 | 6.30 to 7.00 | ≥ 7.00 | 
COC(=O)Nc1cc(-c2cnnc(-c3cccc(NC(=O)N4CC[C@@H](OC)C4)c3)c2)ccn1 [Example 199] | < 6.00 | < 6.00 | < 6.00 | < 6.00 | 
Cc1cc(F)c(NC(=O)NCCC2(C(F)(F)F)CC2)cc1-c1cc(C2CCOCC2)nc(N2CCN(C)CC2)c1 [Example 12] | < 6.00 | 6.00 to 6.30 | 6.30 to 7.00 | ≥ 7.00 | 
COC(=O)Nc1cc(-c2cc(-c3cc(NC(=O)N4CCC(C)(C)C4)cnc3C)ccn2)ccn1 [Example 198] | < 6.00 | 6.00 to 6.30 | 6.30 to 7.00 | < 6.00 | 
COC(C)(C)CCNC(=O)Nc1ccc(C)c(-c2cc(-c3cnn(C4CCNCC4)c3)nc(N3CCOCC3)c2)c1 [Example 46] | < 6.00 | 6.30 to 7.00 | 6.30 to 7.00 | ≥ 7.00 | 
Cc1ccc(NC(=O)NC23CC4CC(CC(C4)C2)C3)cc1-c1cc(OCCO)nc(N2CCOCC2)c1 [Example 14] | < 6.00 | < 6.00 | 6.30 to 7.00 | ≥ 7.00 | 
COC(=O)Nc1cc(-c2cnnc(-c3cc(NC(=O)N4CC[C@@H](OC)C4)cnc3C)c2)ccn1 [Example 203] | < 6.00 | < 6.00 | < 6.00 | < 6.00 | 
CNC(=O)c1cc(-c2cnnc(-c3cc(NC(=O)N4CC[C@H](OC)C4)cnc3C)c2)ccn1 [Example 189] | < 6.00 | < 6.00 | < 6.00 | < 6.00 | 
Cc1ncc(NC(=O)NCCC(C)(C)C)cc1-c1cc(N2CCOCC2)c(=O)n(C)n1 [Example 17] | < 6.00 | < 6.00 | < 6.00 | ≥ 7.00 | 
Cc1ncc(NC(=O)NCCC(C)(C)C)cc1-c1cc(N2CCOCC2)c(=O)n(C)c1 [Example 8] | < 6.00 | < 6.00 | 6.00 to 6.30 | ≥ 7.00 | 

— patent publication US20230357179A1, “RAF KINASE INHIBITORS AND METHODS OF USE THEREOF” (Deciphera Pharmaceuticals, LLC, priority 2021, published 2023)
